Measured values: paper PMC5917001, “Counter-ion effect on antistaphylococcal activity and cytotoxicity of selected antimicrobial peptides” (Amino Acids, 2018)
Where no end group is shown, it is not given here.

How the values were obtained:
[1] = prolonged storage; in words; ref Nayan Desai [2013]; cited from earlier work
[2] = test system: human red blood cells (RBCs)
Protocol: Fresh human red blood cells (RBCs) with EDTA as anticoagulant were rinsed three times with phosphate-buffer saline (PBS) by centrifugation at 800 × g for 10 min and resuspended in PBS. […] Then, the stock solution of RBCs was added to reach a final volume of 100 µL with 4% concentration of erythrocytes (v/v). The control wells for 0% hemolysis and 100% hemolysis consisted of RBCs suspended in PBS and 1% of Triton X–100, respectively. Subsequently, the plates were incubated for 60 min at 37 °C and then centrifuged at 800 × g for 10 min at 4 °C (Sorvall ST 16R Centrifuge, Thermo Scientific). After centrifugation, the supernatant was carefully resuspended to new microtiter plates and the release of hemoglobin was monitored by measurement of absorbance at 540 nm (Multiskan™ GO Microplate Spectrophotometer, Thermo Scientific). All experiments were conducted in triplicate.

[3] = test system: S. aureus (29): reference (5) and clinical (24) strains; conditions: for Mean value of MIC: mean over 29 S. aureus strains (Table 5); for Mean MIC values: mean over 29 S. aureus strains, as repeated in Table 6
Protocol: Microbiological assays were performed using reference and clinical strains of Staphylococcus aureus. Minimal inhibitory concentrations (MIC) were determined by broth microdilution method on 96-well polystyrene plates according to Clinical and Laboratory Standards Institute (CLSI) recommendations [Clinical and Laboratory Standards Institute (CLSI) [2012]]. […] All plates were incubated for 18 h at 37 °C. […] Reference strains of S. aureus: ATCC 6538, ATCC 6538/P, ATCC 9144, ATCC 12598, and ATCC 25923 were obtained from the Polish Collection of Microorganisms (PCM, Polish Academy of Sciences, Wrocław), whereas 24 clinical strains were isolated from the patients of the Clinic of Dermatology, Venereology and Allergology (Medical University of Gdańsk). Nine strains were characterized as methicillin-resistant (MRSA). Preliminary identification and detection was conducted on the ChromID MRSA/ChromID S. aureus biplate (bioMérieux) for the simultaneous detection of S. aureus and methicillin-resistant S. aureus (MRSA). All experiments were conducted at least in triplicate.
To asses an overall activity of peptides, the mean MIC values were calculated.

S. aureus 015N (MRSA) = assay type: cell-based, Staphylococcus aureus; conditions: clinical strain, broth microdilution, 0.5 × 10^5 CFU/mL, 18 h, 37 °C, at least triplicate
Protocol: (§1) Microbiological assays were performed using reference and clinical strains of Staphylococcus aureus. Minimal inhibitory concentrations (MIC) were determined by broth microdilution method on 96-well polystyrene plates according to Clinical and Laboratory Standards Institute (CLSI) recommendations [Clinical and Laboratory Standards Institute (CLSI) [2012]]. For this purpose, the initial inoculums of 0.5 × 10^5 CFU/mL of bacteria were exposed to a range of concentrations of the peptides (0.5–256 µg/mL). All plates were incubated for 18 h at 37 °C. MIC was taken as the lowest concentration of the compound at which the growth of bacteria was not observed. Reference strains of S. aureus: ATCC 6538, ATCC 6538/P, ATCC 9144, ATCC 12598, and ATCC 25923 were obtained from the Polish Collection of Microorganisms (PCM, Polish Academy of Sciences, Wrocław), whereas 24 clinical strains were isolated from the patients of the Clinic of Dermatology, Venereology and Allergology (Medical University of Gdańsk). Nine strains were characterized as methicillin-resistant (MRSA). Preliminary identification and detection was conducted on the ChromID MRSA/ChromID S. aureus biplate (bioMérieux) for the simultaneous detection of S. aureus and methicillin-resistant S. aureus (MRSA). All experiments were conducted at least in triplicate.

S. aureus 045N = assay type: cell-based, Staphylococcus aureus; conditions: clinical strain, broth microdilution, 0.5 × 10^5 CFU/mL, 18 h, 37 °C, at least triplicate
Protocol: as §1

S. aureus 051N (MRSA) = assay type: cell-based, Staphylococcus aureus; conditions: clinical strain, broth microdilution, 0.5 × 10^5 CFU/mL, 18 h, 37 °C, at least triplicate
Protocol: as §1

S. aureus 013S = assay type: cell-based, Staphylococcus aureus; conditions: clinical strain, broth microdilution, 0.5 × 10^5 CFU/mL, 18 h, 37 °C, at least triplicate
Protocol: as §1

S. aureus K19N = assay type: cell-based, Staphylococcus aureus; conditions: clinical strain, broth microdilution, 0.5 × 10^5 CFU/mL, 18 h, 37 °C, at least triplicate
Protocol: as §1

S. aureus K50S = assay type: cell-based, Staphylococcus aureus; conditions: clinical strain, broth microdilution, 0.5 × 10^5 CFU/mL, 18 h, 37 °C, at least triplicate
Protocol: as §1

S. aureus 048S = assay type: cell-based, Staphylococcus aureus; conditions: clinical strain, broth microdilution, 0.5 × 10^5 CFU/mL, 18 h, 37 °C, at least triplicate
Protocol: as §1

S. aureus ATCC 6538/P = assay type: cell-based, Staphylococcus aureus; conditions: reference strain, broth microdilution, 0.5 × 10^5 CFU/mL, 18 h, 37 °C, at least triplicate
Protocol: as §1

S. aureus ATCC 9144 = assay type: cell-based, Staphylococcus aureus; conditions: ATCC 9144, reference strain; broth microdilution, 0.5 × 10^5 CFU/mL, 18 h, 37 °C, at least triplicate
Protocol: as §1

S. aureus 017S (MRSA) = assay type: cell-based, Staphylococcus aureus; conditions: clinical strain, broth microdilution, 0.5 × 10^5 CFU/mL, 18 h, 37 °C, at least triplicate
Protocol: as §1

S. aureus 017N (MRSA) = assay type: cell-based, Staphylococcus aureus; conditions: clinical strain, broth microdilution, 0.5 × 10^5 CFU/mL, 18 h, 37 °C, at least triplicate
Protocol: as §1

S. aureus 001N (MRSA) = assay type: cell-based, Staphylococcus aureus; conditions: clinical strain, broth microdilution, 0.5 × 10^5 CFU/mL, 18 h, 37 °C, at least triplicate
Protocol: as §1

S. aureus 005S = assay type: cell-based, Staphylococcus aureus; conditions: clinical strain, broth microdilution, 0.5 × 10^5 CFU/mL, 18 h, 37 °C, at least triplicate
Protocol: as §1

S. aureus ATCC 25923 = assay type: cell-based, Staphylococcus aureus; conditions: ATCC 25923, reference strain; broth microdilution, 0.5 × 10^5 CFU/mL, 18 h, 37 °C, at least triplicate
Protocol: as §1

S. aureus 024N (MRSA) = assay type: cell-based, Staphylococcus aureus; conditions: clinical strain, broth microdilution, 0.5 × 10^5 CFU/mL, 18 h, 37 °C, at least triplicate
Protocol: as §1

S. aureus ATCC 6538 = assay type: cell-based, Staphylococcus aureus; conditions: ATCC 6538, reference strain; broth microdilution, 0.5 × 10^5 CFU/mL, 18 h, 37 °C, at least triplicate
Protocol: as §1

S. aureus K46N = assay type: cell-based, Staphylococcus aureus; conditions: clinical strain, broth microdilution, 0.5 × 10^5 CFU/mL, 18 h, 37 °C, at least triplicate
Protocol: as §1

S. aureus 060S = assay type: cell-based, Staphylococcus aureus; conditions: clinical strain, broth microdilution, 0.5 × 10^5 CFU/mL, 18 h, 37 °C, at least triplicate
Protocol: as §1

S. aureus 004N (MRSA) = assay type: cell-based, Staphylococcus aureus; conditions: clinical strain, broth microdilution, 0.5 × 10^5 CFU/mL, 18 h, 37 °C, at least triplicate
Protocol: as §1

S. aureus ATCC 12598 = assay type: cell-based, Staphylococcus aureus; conditions: ATCC 12598, reference strain; broth microdilution, 0.5 × 10^5 CFU/mL, 18 h, 37 °C, at least triplicate
Protocol: as §1

S. aureus 001S (MRSA) = assay type: cell-based, Staphylococcus aureus; conditions: clinical strain, broth microdilution, 0.5 × 10^5 CFU/mL, 18 h, 37 °C, at least triplicate
Protocol: as §1

S. aureus 033N = assay type: cell-based, Staphylococcus aureus; conditions: clinical strain, broth microdilution, 0.5 × 10^5 CFU/mL, 18 h, 37 °C, at least triplicate
Protocol: as §1

S. aureus 002S = assay type: cell-based, Staphylococcus aureus; conditions: clinical strain, broth microdilution, 0.5 × 10^5 CFU/mL, 18 h, 37 °C, at least triplicate
Protocol: as §1

S. aureus 051S = assay type: cell-based, Staphylococcus aureus; conditions: clinical strain, broth microdilution, 0.5 × 10^5 CFU/mL, 18 h, 37 °C, at least triplicate
Protocol: as §1

S. aureus 053N = assay type: cell-based, Staphylococcus aureus; conditions: clinical strain, broth microdilution, 0.5 × 10^5 CFU/mL, 18 h, 37 °C, at least triplicate
Protocol: as §1

S. aureus 043SC (MRSA) = assay type: cell-based, Staphylococcus aureus; conditions: clinical strain, broth microdilution, 0.5 × 10^5 CFU/mL, 18 h, 37 °C, at least triplicate
Protocol: as §1

S. aureus 002N = assay type: cell-based, Staphylococcus aureus; conditions: clinical strain, broth microdilution, 0.5 × 10^5 CFU/mL, 18 h, 37 °C, at least triplicate
Protocol: as §1

S. aureus 039N = assay type: cell-based, Staphylococcus aureus; conditions: clinical strain, broth microdilution, 0.5 × 10^5 CFU/mL, 18 h, 37 °C, at least triplicate
Protocol: as §1

S. aureus 030N = assay type: cell-based, Staphylococcus aureus; conditions: clinical strain, broth microdilution, 0.5 × 10^5 CFU/mL, 18 h, 37 °C, at least triplicate
Protocol: as §1

Substance	Mean value of MIC [3]	MIC (S. aureus 015N (MRSA))	MIC (S. aureus 045N)	MIC (S. aureus 051N (MRSA))	MIC (S. aureus 013S)	MIC (S. aureus K19N)	MIC (S. aureus K50S)	MIC (S. aureus 048S)	MIC (S. aureus ATCC 6538/P)	MIC (S. aureus ATCC 9144)	MIC (S. aureus 017S (MRSA))	MIC (S. aureus 017N (MRSA))	MIC (S. aureus 001N (MRSA))	MIC (S. aureus 005S)	MIC (S. aureus ATCC 25923)	MIC (S. aureus 024N (MRSA))	MIC (S. aureus ATCC 6538)	MIC (S. aureus K46N)	MIC (S. aureus 060S)	MIC (S. aureus 004N (MRSA))	further results
GIGKFLKKAKKFGKAFVKILKK-NH2 [Pexiganan AcO^−]	7.1 µg/mL	–	–	–	–	–	–	–	–	–	–	–	–	–	–	–	–	–	–	–	stability of the salt form [1]: the most stable even during prolonged storage; hemolysis of RBCs at the mean MIC value ([2]; human RBCs, at the mean MIC value, in words): ignorable
KWKLFKKIGAVLKVL-NH2 [CAMEL TFA^−]	≤ 3.5 µg/mL	4 µg/mL	4 µg/mL	4 µg/mL	≤ (≤ alone stands for MIC ≤ 0.25 µg/mL)	4 µg/mL	1 µg/mL	4 µg/mL	4 µg/mL	8 µg/mL	2 µg/mL	4 µg/mL	4 µg/mL	≤ (≤ alone stands for MIC ≤ 0.25 µg/mL)	8 µg/mL	≤ (≤ alone stands for MIC ≤ 0.25 µg/mL)	2 µg/mL	4 µg/mL	2 µg/mL	4 µg/mL	MIC (S. aureus ATCC 12598): 4 µg/mL; MIC (S. aureus 001S (MRSA)): 4 µg/mL; MIC (S. aureus 033N): 4 µg/mL; MIC (S. aureus 002S): 4 µg/mL; MIC (S. aureus 051S): 2 µg/mL; MIC (S. aureus 053N): 4 µg/mL; MIC (S. aureus 043SC (MRSA)): 4 µg/mL; MIC (S. aureus 002N): 4 µg/mL; MIC (S. aureus 039N): 4 µg/mL; MIC (S. aureus 030N): 4 µg/mL; Mean MIC values [3]: ≤ 3.5 µg/mL
GLFDVIKKVASVIGGL-NH2 [Citropin 1.1 TFA^−]	13.0 µg/mL	16 µg/mL	16 µg/mL	8 µg/mL	2 µg/mL	16 µg/mL	2 µg/mL	16 µg/mL	16 µg/mL	32 µg/mL	4 µg/mL	8 µg/mL	16 µg/mL	2 µg/mL	32 µg/mL	2 µg/mL	16 µg/mL	16 µg/mL	2 µg/mL	16 µg/mL	MIC (S. aureus ATCC 12598): 16 µg/mL; MIC (S. aureus 001S (MRSA)): 16 µg/mL; MIC (S. aureus 033N): 16 µg/mL; MIC (S. aureus 002S): 16 µg/mL; MIC (S. aureus 051S): 4 µg/mL; MIC (S. aureus 053N): 16 µg/mL; MIC (S. aureus 043SC (MRSA)): 8 µg/mL; MIC (S. aureus 002N): 16 µg/mL; MIC (S. aureus 039N): 16 µg/mL; MIC (S. aureus 030N): 16 µg/mL; Mean MIC values [3]: 13.0 µg/mL
KWKLFKKIGAVLKVL-NH2 [CAMEL Cl^−]	≤ 2.0 µg/mL	2 µg/mL	4 µg/mL	2 µg/mL	≤ (≤ alone stands for MIC ≤ 0.25 µg/mL)	1 µg/mL	1 µg/mL	4 µg/mL	1 µg/mL	1 µg/mL	2 µg/mL	2 µg/mL	2 µg/mL	≤ (≤ alone stands for MIC ≤ 0.25 µg/mL)	2 µg/mL	≤ (≤ alone stands for MIC ≤ 0.25 µg/mL)	≤ (≤ alone stands for MIC ≤ 0.25 µg/mL)	4 µg/mL	1 µg/mL	2 µg/mL	MIC (S. aureus ATCC 12598): 1 µg/mL; MIC (S. aureus 001S (MRSA)): 2 µg/mL; MIC (S. aureus 033N): 4 µg/mL; MIC (S. aureus 002S): 1 µg/mL; MIC (S. aureus 051S): 2 µg/mL; MIC (S. aureus 053N): 4 µg/mL; MIC (S. aureus 043SC (MRSA)): 4 µg/mL; MIC (S. aureus 002N): ≤ (≤ alone stands for MIC ≤ 0.25 µg/mL); MIC (S. aureus 039N): 4 µg/mL; MIC (S. aureus 030N): 4 µg/mL; Mean MIC values [3]: ≤ 2.0 µg/mL
FLPLIGRVLSGIL-NH2 [Temporin A]	–	–	–	–	–	–	–	–	–	–	–	–	–	–	–	–	–	–	–	–	hemolysis ([2]; at 256 µg/mL, human RBCs 4% (v/v) in PBS, 60 min, 37 °C, absorbance 540 nm, 100% = 1% Triton X-100, triplicate): ≤ 4%; hemolysis of RBCs ([2]; human RBCs, in words): almost undetectable; MIC range among strains ([3]; range over all S. aureus strains and the salts of the peptide): 2 to 8 µg/mL
